Data taken from paper PMC4317639, “In Vitro Gender-Dependent Inhibition of Porcine Cytochrome P450 Activity by Selected Flavonoids and Phenolic Acids” (BioMed Research International, 2015).

Experiments:
[1] = test system: porcine CYP1A; experiment: Inhibition of CYP1A activity (7-ethoxyresorufin O-deethylation) in porcine hepatic microsomes; format: in vitro ADME, pig; conditions: for Ki / effect of a preincubation step on inhibition of CYP1A: inhibitor 16, 32, 128 μM; for Ki: 7-ethoxyresorufin 0.1-4 μM; for effect on CYP1A activity: 16 μM compound, hepatic microsomes from male and female pigs, 2 μM 7-ethoxyresorufin; for effect of a preincubation step on inhibition of CYP1A: 5 min preincubation with NADPH at 37°C, male and female pigs
Description: (§1) Microsomes were prepared with a calcium aggregation method using Tris-EDTA homogenization buffer. Experiments were performed using pools of microsomes consisting of microsomes from two individual pigs. The total microsomal protein concentration was analyzed the same day using a commercially available kit (Bio-Rad Laboratories Inc., Hercules, CA, USA) according to the manufacturer's instructions. Microsomes were diluted to a protein concentration of 10 mg/mL and stored at −80°C until analysis.
(§2) Specific CYP450 activities were determined by incubating microsomes (diluted in 0.5 M potassium phosphate buffer (pH 7.4)) and adding 0.5 mM NADPH together with one of the following selective substrates (specific CYP450 target given in parentheses): 2 μM 7-ethoxyresorufin (CYP1A), 200 μM coumarin (CYP2A), 10 μM 7-benzyloxy-4-trifluoromethylcoumarin (CYP3A), and 200 μM p-nitrophenol (CYP2E1). […] The corresponding metabolites were quantified by HPLC as previously described.
(§3) For quercetin, this concentration is approximately what can be found in liver of pigs fed a single dose of a quercetin enriched diet. The stock solutions of these compounds were prepared in methanol, and the final concentration of methanol was 0.1% in the incubation volumes. The same amount of methanol was added to the control incubations. Percentage inhibitions were calculated as differences between the activities in the control incubations (arbitrarily set to 100%) and in the presence of the specific compound.
(§4) For that microsomes were preincubated with the tested compound in the presence of NADPH for 5 min (CYP1A, CYP3A) or 15 min (CYP2E1) at 37°C before the addition of specific substrate. […] The incubation time and the amount of the microsomal protein were in the linear range for the rate of metabolite formation. All measurements were performed in duplicate.
(§5) Kinetic parameters (Michaelis-Menten constant K m, maximal velocity of the reaction V max, and dissociation constant for inhibitor binding K i) were estimated by fitting data to the Michaelis-Menten equation using GraphPad Prism (version 4.0 for Windows, GraphPad Software (San Diego, California, USA)). Visual inspection of the plots was used to estimate whether inhibition degree was affected by inclusion of the preincubation step.

[2] = test system: porcine CYP3A; experiment: Inhibition of CYP3A activity (7-benzyloxy-4-trifluoromethylcoumarin O-dealkylation) in porcine hepatic microsomes; format: in vitro ADME, pig; conditions: for effect on CYP3A activity: 16 μM compound, hepatic microsomes from male and female pigs, 10 μM BFC; for reversibility of CYP3A inhibition (effect of a preincubation step): 5 min preincubation with NADPH at 37°C, male and female pigs; for Ki: pig, inhibitor 16, 32, 128 μM, BFC 0.1-150 μM
Description: as §1, §2, §3, §4, §5

[3] = biological target: porcine CYP2E1 (Sus scrofa, UniProt P79383); experiment: Inhibition of CYP2E1 activity (p-nitrophenol hydroxylation) in porcine hepatic microsomes; format: in vitro ADME, pig; conditions: for effect on CYP2E1 activity: 16 μM compound
Description: as §1, §2, §3, §4, §5

[4] = test system: porcine CYP2A; conditions: 16 μM compound; hepatic microsomes from male and female pigs; 200 μM coumarin
Description: as §1
Specific CYP450 activities were determined by incubating microsomes (diluted in 0.5 M potassium phosphate buffer (pH 7.4)) and adding 0.5 mM NADPH together with one of the following selective substrates (specific CYP450 target given in parentheses): 2 μM 7-ethoxyresorufin (CYP1A), 200 μM coumarin (CYP2A), 10 μM 7-benzyloxy-4-trifluoromethylcoumarin (CYP3A), and 200 μM p-nitrophenol (CYP2E1). For kinetic studies, concentrations of 7-ethoxyresorufin varied from 0.05 to 4 μM, concentrations of p-nitrophenol varied from 2.5 to 4000 μM, and concentrations of BFC varied from 0.1 to 150 μM. The corresponding metabolites were quantified by HPLC as previously described.
as §3

[5] = hepatic microsomes from female pigs
[6] = hepatic microsomes from male and female pigs, 200 μM p-nitrophenol
[7] = pig, pH 7.4, hepatic microsomes from female pigs
[8] = pig, pH 7.4, hepatic microsomes from male pigs

Chain of porcine CYP2E1 (P79383 whole entry): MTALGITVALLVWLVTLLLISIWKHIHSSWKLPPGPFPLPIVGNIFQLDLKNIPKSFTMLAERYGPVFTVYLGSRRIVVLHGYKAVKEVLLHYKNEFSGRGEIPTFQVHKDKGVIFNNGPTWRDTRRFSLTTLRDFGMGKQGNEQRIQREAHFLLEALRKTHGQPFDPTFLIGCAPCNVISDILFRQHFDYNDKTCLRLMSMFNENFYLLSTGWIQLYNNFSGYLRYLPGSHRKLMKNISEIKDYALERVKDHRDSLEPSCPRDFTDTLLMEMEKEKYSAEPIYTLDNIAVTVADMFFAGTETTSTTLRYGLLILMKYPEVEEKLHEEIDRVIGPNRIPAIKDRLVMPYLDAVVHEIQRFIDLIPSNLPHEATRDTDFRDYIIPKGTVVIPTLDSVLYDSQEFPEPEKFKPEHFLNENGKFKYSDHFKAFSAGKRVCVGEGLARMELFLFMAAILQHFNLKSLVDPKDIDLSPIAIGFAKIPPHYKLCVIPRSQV

effect on CYP1A activity [1] | Structure (SMILES) | effect on CYP3A activity [2] | effect on CYP2E1 activity [3, 6] | effect on CYP2A activity [4] | other results
– | O=c1c(O)c(-c2ccc(O)c(O)c2)oc2cc(O)cc(O)c12 [quercetin] | did not affect | – | – | mode of inhibition of CYP1A [1, 5]: irreversible inhibition; IC50 ([1]; pig, liver microsomes, pH 7.4, probe 7-ethoxyresorufin (2 μM), hepatic microsomes from female pigs, with 5 min preincubation with NADPH): 2.5 µM; Ki ([1]; pig, liver microsomes, pH 7.4, probe 7-ethoxyresorufin (0.1-4 μM; O-deethylation), hepatic microsomes from male pigs): 0.16 ± 0.03 µM; effect on CYP2E1 activity [3, 5]: No effect; reversibility of CYP2E1 inhibition (effect of a preincubation step) ([3]; 15 min preincubation with NADPH at 37°C, male pigs): reversible inhibition; Ki ([3]; hepatic microsomes from male pigs, inhibitor 16, 32, 128 μM, p-nitrophenol 0.25-4000 μM): 94.2 ± 13.5 µM
did not alter activity | O=C(O)/C=C/c1ccc(O)cc1 [p-coumaric acid] | did not alter activity | did not alter activity | did not alter activity | –
– | O=c1c(O)c(-c2cc(O)c(O)c(O)c2)oc2cc(O)cc(O)c12 [myricetin] | decreased | did not affect | did not affect | effect of a preincubation step on inhibition of CYP1A [1]: did not affect; Ki [1, 7]: 4.4 ± 3.4 µM; Ki [1, 8]: 2.5 ± 0.9 µM; reversibility of CYP3A inhibition (effect of a preincubation step) [2]: reversible inhibition; Ki ([2]; liver microsomes, pH 7.4, probe 7-benzyloxy-4-trifluoromethylcoumarin (BFC), hepatic microsomes from male pigs): 113 ± 20.8 µM
– | O=C(O)c1cc(O)c(O)c(O)c1 [gallic acid] | did not alter activity | did not alter activity | – | –
did not alter activity | O=C(O)/C=C/c1ccc(O)c(O)c1 [caffeic acid] | did not alter activity | did not alter activity | did not alter activity | –
– | COc1cc(-c2oc3cc(O)cc(O)c3c(=O)c2O)ccc1O [isorhamnetin] | decreased | did not affect | did not affect | effect of a preincubation step on inhibition of CYP1A [1]: did not affect; Ki [1, 7]: 10.8 ± 2.8 µM; Ki [1, 8]: 99.9 ± 77.6 µM; reversibility of CYP3A inhibition (effect of a preincubation step) [2]: reversible inhibition; Ki ([2]; pH 7.4, hepatic microsomes from female pigs): 93.7 ± 61.3 µM; Ki ([2]; pH 7.4, hepatic microsomes from male pigs): 71.2 ± 20.2 µM

Structure (SMILES) | effect on CYP1A activity [1] | effect on CYP3A activity [2] | effect on CYP2E1 activity [3, 6] | effect on CYP2A activity [4] | other results
C[C@@H]1O[C@@H](OC[C@H]2O[C@@H](Oc3c(-c4ccc(O)c(O)c4)oc4cc(O)cc(O)c4c3=O)[C@H](O)[C@@H](O)[C@@H]2O)[C@H](O)[C@H](O)[C@H]1O [rutin] | did not alter activity | did not alter activity | did not alter activity | did not alter activity | –
